Measurements as given in publication PMC5036617 (Toxicological Sciences, 2016).
Like-named read-outs stand apart in the source and are kept apart here.

Columns and labels:
HepG2 cells [1] = assay: Cellular ATP content of HepG2 cells in glucose or galactose medium (ATP bioluminescent assay); type: cell-based; details: 2 h; for decrease in ATP content in galactose medium compared with glucose medium: up to 300 µM; for EC50: Homo sapiens, concentration reducing cellular ATP content by 50%; for EC50ATPglu/EC50ATPgal: ratio ≥ 2 identifies a mitochondrial liability
Protocol: Metabolic switching of cells was performed based on work previously described by ([[…] et al., 2015]). Briefly, 24 h prior to metabolic switch, HepG2 cells were collected by trypsinization and seeded on a collagen-coated flat-bottomed 96-well plate (20 000 cells/50 μl/well) and incubated (37°C, 5% CO2) overnight. […] Flutamide, 2-hydroxyflutamide and bicalutamide stock solutions were prepared in DMSO and diluted further in the appropriate medium. Compounds (50 μl) were then added to each well and cells were incubated for 2 h (37 °C, 5% CO2). All assays used ≤ 0.5% DMSO as a vehicle control. […] LDH content of the cells and supernatant was assessed using a cytotoxicity detection kit according to the manufacturer's instructions. ATP content was assessed using an ATP bioluminescent assay according to the manufacturer's instructions. Briefly, 10 μl of cell lysate or ATP standard curve solutions were added to a white-walled 96-well plate before addition of 40 μl ATP assay mix. Protein content of all wells was then assessed using a BCA assay applied to 10 μl of cell lysate and standards. LDH (490 nm), BCA (570 nm), and ATP assay luminescence were then measured using a plate reader (Varioskan, Thermo Scientific). ATP content readings were normalized to protein content. Experiments were conducted in a minimum of triplicate to ensure the reliability of single values. EC50 data were determined by nonlinear regression analysis using GraphPad Prism 5.0. Normality was assessed using a Shapiro-Wilk statistical test. Statistical significance was determined by an unpaired t-test for parametric data and a Mann-Whitney U test for non-parametric data using StatsDirect 2.7.9. P < .05 was taken as showing a significant difference.

HepG2 cells [2] = assay: Mitochondrial stress test, OCR analysis (Seahorse XFe96); type: cell-based; details: for basal respiration / maximal respiration: glucose medium, 7.8–500 µM; for basal respiration / maximal respiration / ATP-linked OCR as a percentage of maximal respiration / proton leak as a percentage of maximal respiration / spare respiratory capacity as a percentage of maximal respiration: vs vehicle control
Protocol: HepG2 cells were collected by trypsinization and seeded on a collagen-coated XF 96-well cell culture microplate (25 000 cells/100 µl medium/well) and incubated overnight in glucose medium (37 °C, 5% CO2). All assays used ≤ 0.5% DMSO as a vehicle control. Cells were incubated for 1 h (37°C, 0% CO2) before culture medium was replaced by 175 µl of unbuffered Seahorse XF Base medium supplemented with glucose (25 mM), L-glutamine (2 mM), sodium pyruvate (1 mM), pre-warmed to 37 °C (pH 7.4). Prior to measurement of OCR, the Seahorse XFe96 instrument gently mixed the assay medium in each well for 10 min to enable the oxygen partial pressure to reach equilibrium. […] There were 9 OCR measurement cycles following compound injection and each measurement cycle consisted of a 3 min mix and 3 min measure. […] After stress test compound injections there were 3 measurement cycles before the injection of the next stress test compound. This enabled the calculation of basal respiration (OCR prior to oligomycin injection—non-mitochondrial OCR), proton leak (OCR after oligomycin injection—non-mitochondrial OCR), ATP-linked OCR (basal respiration—proton leak—non-mitochondrial OCR), maximal respiration (first injection after FCCP injection—non-mitochondrial OCR) and spare respiratory capacity (maximal respiration—basal respiration) (Figure 2).  FIG. 2 Representative control mitochondrial stress test trace. Mitochondrial stress test assays consisted of a series of compound injections into the cell culture microplate. […] Remaining injections consisted of oligomycin (ATP synthase inhibitor), FCCP (OXPHOS uncoupler), and rotenone/antimycin A (complex I and III inhibitors, respectively) with each followed by 3 measurement cycles. This series of manipulations enabled the calculation of parameters: basal, ATP-linked, maximum, and non-mitochondrial OCR, as well as proton leak. Each measurement cycle was a total of 6 min. Following completion of OCR assays, medium was removed from all wells and 20 µl of somatic cell ATP releasing agent was added to each well before shaking for 1 min and transfer of 10 µl of lysate to a 96-well plate and performance of a BCA assay according to the manufacturer’s instructions. Protein content per well was used to normalize OCR.

[3] = test system: mitochondrial respiratory complex I; assay: In situ respiratory complex assay in permeabilized cells, complex I; type: cell-based; details: uncoupled, permeabilized HepG2 cells, 10–250 µM
[4] = test system: mitochondrial respiratory complex II; assay: In situ respiratory complex assay in permeabilized cells, complex II; type: cell-based; details: uncoupled, permeabilized HepG2 cells, 10–250 µM
[5] = test system: mitochondrial respiratory complex IV; assay: In situ respiratory complex assay in permeabilized cells, complex IV; type: cell-based; details: uncoupled, permeabilized HepG2 cells, 10–250 µM
[6] = test system: mitochondrial respiratory complex III; assay: Complex III-linked respiration assay in permeabilized cells; type: cell-based; details: permeabilized HepG2 cells, complex III-stimulated maximal respiration, 10–250 µM
Protocol: Culture medium was replaced with MAS buffer containing constituents to stimulate oxygen consumption via complex I (as previously without FCCP), complex II (ADP; 4.6 mM, succinate; 20 mM, rotenone; 1 µM, BSA; 0.2% w/v, PMP; 1 nM), or complex III (ADP; 4.6 mM, duroquinol; 500 μM, rotenone; 1 μM, malonic acid; 40 μM, BSA; 0.2% w/v, PMP; 1 nM) dependent on the respiratory complex of interest. […] Changes in complex II activity were also assessed at lower compound concentrations; 2–30 μM (Supplementary Figure S1). Complex I, II, and III activity were defined by the change in complex I, II, or III-stimulated maximal respiration respectively compared with vehicle control.
Following completion of OCR assays, medium was removed from all wells and 20 µl of somatic cell ATP releasing agent was added to each well before shaking for 1 min and transfer of 10 µl of lysate to a 96-well plate and performance of a BCA assay according to the manufacturer’s instructions. Protein content per well was used to normalize OCR.

HepG2 cells [7] = assay: Assessment of superoxide level (mitoSOX red); type: cell-based; details: 2 h; for concentration significantly increasing cellular superoxide: HepG2 cells, glucose medium, 15–500 µM; for superoxide level in galactose media: acutely galactose-conditioned HepG2 cells, up to 500 µM
Protocol: HepG2 cells were collected by trypsinization and seeded on a 24-well plate (150 000 cells/500 µl/well) and incubated overnight in glucose medium (37°C, 5% CO2). […] Protein content per well was determined using a BCA assay (as described earlier) and was used to normalize superoxide levels.

HepG2 cells [8] = assay: Assessment of NAD+/NADH ratio; type: cell-based; details: 2 h, glucose medium, 30–500 µM
Protocol: HepG2 cells were collected by trypsinization and seeded on a 24-well plate (450 000 cells/500 µl/well) and incubated overnight in glucose medium (37 °C, 5% CO2). […] NAD^+ and NADH concentrations were measured in lysates using a NAD^+/NADH ratio assay kit according to the manufacturer’s instructions.

bile salt export pump = test system: bile salt export pump; set-up: method as in Kostrubsky et al., 2007; details: via bile salt export pump inhibition; ref Kostrubsky et al., 2007; read-out: IC50 inhibition of taurocholate efflux; cited from earlier work
[9] = galactose medium, read-out: EC50ATP (μM) Galactose
[10] = glucose medium, read-out: EC50ATP (μM) Glucose

Structure (SMILES) | decrease in ATP content in galactose medium compared with glucose medium (HepG2 cells [1]) | EC50 (HepG2 cells [1]; [9]) | EC50 (HepG2 cells [1]; [10]) | basal respiration (HepG2 cells [2]) | maximal respiration (HepG2 cells [2]) | ATP-linked OCR as a percentage of maximal respiration (HepG2 cells [2]; up to 500 µM) | proton leak as a percentage of maximal respiration (HepG2 cells [2]; up to 500 µM) | spare respiratory capacity as a percentage of maximal respiration (HepG2 cells [2]; up to 500 µM) | complex I activity (response to rotenone) [3] | complex II activity (response to succinate) [4] | complex IV activity [5] | complex III activity [6] | concentration significantly increasing cellular superoxide (HepG2 cells [7]) | superoxide level in galactose media (HepG2 cells [7]) | NAD+/NADH ratio (HepG2 cells [8]) | concentration significantly decreasing NAD+/NADH ratio (HepG2 cells [8]) | IC50 (bile salt export pump) | EC50ATPglu/EC50ATPgal (HepG2 cells [1]) | EC50ATPglu/EC50ATPgal (HepG2 cells [1]; listed as flutamide) | OCR upon compound injection, mitochondrial stress test (HepG2 cells [2]; up to 500 µM)
CC(C)(O)C(=O)Nc1ccc([N+](=O)[O-])c(C(F)(F)F)c1 [2-hydroxyflutamide] | significantly more in the galactose medium | 48.5 µM | 267 µM | significant decrease | significant decrease | significant decrease | significant increase | significant decrease | significant reduction in complex I activity | significantly reduced response | Neither compound appeared to have a significant impact | no significant inhibition | ≥ 30 µM | significant increase | significantly decreased | ≥ 100 µM | 110 µM |  |  | 
CC(C)C(=O)Nc1ccc([N+](=O)[O-])c(C(F)(F)F)c1 [Flutamide] | significantly more in the galactose medium | 43.9 µM | 255 µM | significant decrease | significant decrease | significant decrease | significant increase | significant decrease | significant reduction in complex I activity | Only 2-hydroxyflutamide induced a significantly reduced response | Neither compound appeared to have a significant impact | no significant inhibition | ≥ 30 µM | significant increase | significantly decreased | ≥ 100 µM | 75 µM | 5.82 (0.03) | ≥ 2 | immediate concentration-dependent reduction in OCR
